Literature values, collected in patent publication US8865693B2, “Prevention of infection” (Pop Test Cortisol LLC, priority 2011, dated 2014).

Experiments:
[1] = phase I and phase II clinical trials already performed
[2] = in words only
[3] = tested on: mineralocorticoid, progesterone, estrogen and androgen receptors; settings: in words only
[4] = in words only; remark: listed apart in the source
[5] = biological target: T1, glucocorticoid receptor (Homo sapiens, UniProt P04150); settings: in words only
T1 sequence (P04150 1-777): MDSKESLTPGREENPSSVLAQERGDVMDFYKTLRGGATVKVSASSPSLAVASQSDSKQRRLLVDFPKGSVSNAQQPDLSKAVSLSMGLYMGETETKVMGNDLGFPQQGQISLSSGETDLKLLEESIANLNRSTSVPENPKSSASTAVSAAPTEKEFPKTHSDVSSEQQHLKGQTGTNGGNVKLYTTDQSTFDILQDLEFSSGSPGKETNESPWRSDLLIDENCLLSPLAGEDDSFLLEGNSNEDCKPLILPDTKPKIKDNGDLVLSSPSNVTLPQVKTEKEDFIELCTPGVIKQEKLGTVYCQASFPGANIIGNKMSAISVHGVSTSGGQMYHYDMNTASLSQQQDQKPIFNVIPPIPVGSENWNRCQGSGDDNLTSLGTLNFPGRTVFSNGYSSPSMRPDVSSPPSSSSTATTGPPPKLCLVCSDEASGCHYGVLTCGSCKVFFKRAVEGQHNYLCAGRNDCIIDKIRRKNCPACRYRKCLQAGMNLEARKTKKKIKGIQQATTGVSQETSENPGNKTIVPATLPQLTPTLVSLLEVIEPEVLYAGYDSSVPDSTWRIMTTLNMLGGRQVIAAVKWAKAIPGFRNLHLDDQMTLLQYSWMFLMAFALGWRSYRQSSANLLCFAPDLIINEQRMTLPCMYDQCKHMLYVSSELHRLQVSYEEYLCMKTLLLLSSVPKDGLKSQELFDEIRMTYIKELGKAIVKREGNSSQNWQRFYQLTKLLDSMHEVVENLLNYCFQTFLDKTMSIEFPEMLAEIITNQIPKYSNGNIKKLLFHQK

CC#C[C@]1(O)CC[C@H]2[C@@H]3CCC4=CC(=O)CCC4=C3[C@@H](c3ccc4c(c3)OCO4)C[C@@]21C [ORG 34517, (11β,17β)-11-(1,3-benzodioxol-5-yl)-17-hydroxy-17-(1-propynyl) estra-4,9-dien-3-one]
significant toxicities and side effects identified [1]: none were identified
androgenic activities [2]: low
cross-binding to other related steroidal hormone receptors (such as those for estrogen and progesterone) [3]: without significant cross-binding
progestagenic activities [4]: low
glucocorticoid receptor binding affinity [5]: high
